System: weiblicher Ratten
Test: Cycle (oestrus) suppression in female rats after s.c. injection, weekly vaginal smear (Beispiel 2)
Format: in vivo
Settings: HOE 013 solution 60 μg daily, liposomes single dose 3200 μg HOE 013
Procedure: 2 x 1 ml der Liposomen (entspr. einer Einmalgabe von 3200 µg HOE 013) aus Beispiel 1 werden subkutan weiblichen Ratten von ca. 200 g Körpergewicht injiziert. Als Kontrolle dient eine gleiche Testgruppe von Tieren, die nur Lösungsmittel (Kochsalzlösung) erhält (Placebo) und eine Gruppe von Tieren, die mit täglichen Gaben von LHRH-Antagonist-Lösung (60 µg) (in 5 %iger Mannitlösung) behandelt wird. Die Östrussuppression der Tiere wird durch wöchentlichen Östrusabstrich überprüft. Am Tag 35 wird die Konzentration von HOE 013 im Urin gemessen und die 24 h-Ausscheidung berechnet.
Die Ergebnisse (s. Tabelle 1) zeigen, daß die Tiere der Liposomengruppe im Gegensatz zu den beiden Kontrollgruppen nach 35 Tagen noch deutlich supprimiert sind. Die Exkretionsrate am Tag 35 (4,5 µg) belegt eine signifikante Ausscheidung des Antagonisten im Falle der Liposomenpräparation. Diese Exkretionsrate ist mit der Plasmakonzentration eng korreliert.

Measured: Ratten mit Zuyklussuppression/ Ratten pro Gruppe

Ac-D-Nal-p-Cl-D-Phe-D-Trp-Ser Tyr-D-Ser (α-L-Rha)-Leu-Arg-Pro-Azagly-NH₂ [HOE 013]
0/11: Tag 1 of vaginal cytology | Tag 7 of vaginal cytology | Tag 14 of vaginal cytology | Tag 21 of vaginal cytology | Tag 28 of vaginal cytology | Tag 35 of vaginal cytology

Source: EP0451791A2, “Long acting liposome compositions containing peptid drugs and method for their preparation” (HOECHST AKTIENGESELLSCHAFT, priority 1990, dated 1991)
